Data as given in patent publication US10487093B2, “Heterocyclic compounds, in particular 2-oxo-4,4,5,5,6,6,7,7-octahydrobenzoxazole derivatives, and their use as antibacterial compounds” (priority 2016, dated 2019).
In brackets after ≈: the same amount, converted by molar mass. Like-named read-outs stand apart in the source and are kept apart here.

Tests used:
[1] = test system: Enterobacter cloacae NCTC 13406; test: MIC, broth microdilution (CLSI) versus planktonic bacteria; type: cell-based
[2] = test system: Streptococcus pneumoniae ATCC 49619; test: as above; type: cell-based
[3] = test system: Haemophilus influenzae ATCC 49247; test: as above; type: cell-based
[4] = test system: Escherichia coli ATCC 25922; test: as above; type: cell-based
[5] = test system: Pseudomonas aeruginosa ATCC 27853; test: as above; type: cell-based
[6] = test system: Staphylococcus aureus ATCC 29213; test: as above; type: cell-based
[7] = test system: Acinetobacter baumannii NCTC 13420; test: as above; type: cell-based
[8] = test system: human hepatic cell line (HepG2 ATCC HB-8065); test: Human cell viability assay (CellTiter-Glo); conditions: Homo sapiens, HepG2, 24 h, read-out: IC50 (μg/mL) HepG2
[9] = NCTC13406, Enterobacter cloacae NCTC 13406, 16-20 h, mode of three independent experiments, read-out: MIC, Ecl NCTC 13406
[10] = ATCC49619, Streptococcus pneumoniae ATCC 49619, 16-20 h, mode of three independent experiments, read-out: MIC, Sp ATCC 49619
[11] = ATCC49247, Haemophilus influenzae ATCC 49247, 16-20 h, mode of three independent experiments, read-out: MIC, Hi ATCC 49247
[12] = ATCC25922, Escherichia coli ATCC 25922, 16-20 h, mode of three independent experiments, read-out: MIC, Ec ATCC 25922
[13] = ATCC27853, Pseudomonas aeruginosa ATCC 27853, 16-20 h, mode of three independent experiments, read-out: MIC, Pa ATCC 27853
[14] = ATCC29213, Staphylococcus aureus ATCC 29213, 16-20 h, mode of three independent experiments, read-out: MIC, Sa ATCC 29213
[15] = NCTC13420, Acinetobacter baumannii NCTC 13420, 16-20 h, mode of three independent experiments, read-out: MIC, Ab NCTC 13420

| SMILES | MIC [1, 9] [µg/mL] | MIC [2, 10] [µg/mL] | MIC [3, 11] [µg/mL] | MIC [4, 12] [µg/mL] | MIC [5, 13] [µg/mL] | MIC [6, 14] [µg/mL] | MIC [7, 15] [µg/mL] | IC50 [8] [µg/mL] | MIC ([1]; Enterobacter cloacae, NCTC13406, read-out: MIC, Ecl NCTC 13406) [µg/mL] | MIC ([2]; Streptococcus pneumoniae, ATCC49619, read-out: MIC, Sp ATCC 49619) [µg/mL] | MIC ([3]; Haemophilus influenzae, ATCC49247, read-out: MIC, Hi ATCC 49247) [µg/mL] | MIC ([4]; Escherichia coli, ATCC25922, read-out: MIC, Ec ATCC 25922) [µg/mL] | MIC ([5]; Pseudomonas aeruginosa, ATCC27853, read-out: MIC, Pa ATCC 27853) [µg/mL] | MIC ([6]; Staphylococcus aureus, ATCC29213, read-out: MIC, Sa ATCC 29213) [µg/mL] | MIC ([7]; Acinetobacter baumannii, NCTC13420, read-out: MIC, Ab NCTC 13420) [µg/mL] |
| --- | --- | --- | --- | --- | --- | --- | --- | --- | --- | --- | --- | --- | --- | --- | --- |
| O=C1COc2cnc(N3C(=O)O[C@@H]4C[C@@H](NCCn5c(=O)cnc6cc(F)c(F)cc65)CC[C@@H]43)nc2N1 [Compound 65, 1-(2-{[(3aS,6S,7aR)-2-oxo-3-{7-oxo-6H,7H,8H-pyrimido[5,4-b][1,4]oxazin-2-yl}-octahydro-1,3-benzoxazol-6-yl]amino}ethyl)-6,7-difluoro-1,2-dihydroquinoxalin-2-one] | 1 to 10 (≈ 1.95 to 19.5 µM) | < 1 | 1 to 10 (≈ 1.95 to 19.5 µM) | 1 to 10 (≈ 1.95 to 19.5 µM) | 10 to 100 (≈ 19.5 to 195 µM) | < 1 | 10 to 100 (≈ 19.5 to 195 µM) | > 100 |  |  |  |  |  |  |  |
| O=C1COc2ccc(N3C(=O)O[C@@H]4C[C@@H](NCCn5c(=O)cnc6ccc(F)cc65)CC[C@@H]43)nc2N1 [Compound 26, 1-(2-{[(3aS,6S,7aR)-2-oxo-3-{3-oxo-2H,3H,4H-pyrido[3,2-b][1,4]oxazin-6-yl}-octahydro-1,3-benzoxazol-6-yl]amino}ethyl)-7-fluoro-1,2-dihydroquinoxalin-2-one] | 1 to 10 (≈ 2.02 to 20.2 µM) | < 1 | < 1 | < 1 | 1 to 10 (≈ 2.02 to 20.2 µM) | < 1 | < 1 | > 100 |  |  |  |  |  |  |  |
| COc1ccc2ccc(=O)n(CCN(C(=O)CN)[C@H]3CC[C@H]4[C@H](C3)OC(=O)N4c3ccc4c(n3)NC(=O)CO4)c2n1 [Compound 78, {[(3aS,6S,7aS)-2-oxo-3-{3-oxo-2H,3H,4H-pyrido[3,2-b][1,4]oxazin-6-yl}-octahydro-1,3-benzoxazol-6-yl][2-(7-methoxy-2-oxo-1,2-dihydro-1,8-naphthyridin-1-yl)ethyl]carbamoyl}methanaminium chloride] |  |  |  |  |  |  |  | > 100 | > 100 | < 1 | 10 to 100 | 1 to 10 | 1 to 10 | < 1 | 10 to 100 |
| CN(C)CCOc1ccc2ccc(=O)n(CCN[C@@H]3CC[C@@H]4[C@@H](C3)OC(=O)N4c3ccc4c(n3)NC(=O)CO4)c2c1 [Compound 32, 1-(2-{[(3aR,6R,7aR)-2-oxo-3-{3-oxo-2H,3H,4H-pyrido[3,2-b][1,4]oxazin-6-yl}-octahydro-1,3-benzoxazol-6-yl]amino}ethyl)-7-[2-(dimethylamino)ethoxy]-1,2-dihydroquinolin-2-one] | 10 to 100 (≈ 17.8 to 178 µM) | 1 to 10 (≈ 1.78 to 17.8 µM) | 10 to 100 (≈ 17.8 to 178 µM) | 1 to 10 (≈ 1.78 to 17.8 µM) | 1 to 10 (≈ 1.78 to 17.8 µM) | 1 to 10 (≈ 1.78 to 17.8 µM) | > 100 | > 100 |  |  |  |  |  |  |  |
| CN(CCn1c(=O)ccc2ccc(OCCN)cc21)[C@@H]1CC[C@@H]2[C@@H](C1)OC(=O)N2c1ccc2c(n1)NC(=O)CO2 [Compound 54] | 1 to 10 (≈ 1.82 to 18.2 µM) | < 1 | 1 to 10 (≈ 1.82 to 18.2 µM) | < 1 | 1 to 10 (≈ 1.82 to 18.2 µM) | < 1 | 1 to 10 (≈ 1.82 to 18.2 µM) | > 100 |  |  |  |  |  |  |  |
| COc1ncc2ccc(=O)n(CCN[C@H]3CC[C@H]4[C@@H](C3)OC(=O)N4c3ccc4c(n3)NC(=O)CO4)c2n1 [Compound 17, (3aS,6S,7aR)-6-[(2-{2-methoxy-7-oxo-7H,8H-pyrido[2,3-d]pyrimidin-8-yl}ethyl)amino]-3-{3-oxo-2H,3H,4H-pyrido[3,2-b][1,4]oxazin-6-yl}-octahydro-1,3-benzoxazol-2-one] | 10 to 100 (≈ 19.7 to 197 µM) | 10 to 100 (≈ 19.7 to 197 µM) | 10 to 100 (≈ 19.7 to 197 µM) | 1 to 10 (≈ 1.97 to 19.7 µM) | 10 to 100 (≈ 19.7 to 197 µM) | 1 to 10 (≈ 1.97 to 19.7 µM) | 10 to 100 (≈ 19.7 to 197 µM) | 10 to 100 (≈ 19.7 to 197 µM) |  |  |  |  |  |  |  |
| COc1ccc2ccc(=O)n(CCN[C@H]3CC[C@H]4[C@@H](C3)OC(=O)N4c3ncc4c(n3)NC(=O)CO4)c2n1 [Compound 16] | 1 to 10 (≈ 1.97 to 19.7 µM) | < 1 | < 1 | < 1 | 1 to 10 (≈ 1.97 to 19.7 µM) | < 1 | 1 to 10 (≈ 1.97 to 19.7 µM) | > 100 |  |  |  |  |  |  |  |
